# Data published in ChEMBL document CHEMBL4804281, “STK4 inhibitors for treatment of hematologic malignancies” (2020).
# pIC50: −log10 of the molar value.
# Columns and labels:
# [1] = biological target: T1, Serine/threonine-protein kinase 4 (Homo sapiens) (UniProt Q13043); experiment: Inhibition of STK4 (unknown origin) using fluorescein-labelled Ser/Thr-07 peptide as substrate incubated for 1 hr in presence of ATP at Km concentration by Z-LYTE assay
# T1 sequence (whole entry): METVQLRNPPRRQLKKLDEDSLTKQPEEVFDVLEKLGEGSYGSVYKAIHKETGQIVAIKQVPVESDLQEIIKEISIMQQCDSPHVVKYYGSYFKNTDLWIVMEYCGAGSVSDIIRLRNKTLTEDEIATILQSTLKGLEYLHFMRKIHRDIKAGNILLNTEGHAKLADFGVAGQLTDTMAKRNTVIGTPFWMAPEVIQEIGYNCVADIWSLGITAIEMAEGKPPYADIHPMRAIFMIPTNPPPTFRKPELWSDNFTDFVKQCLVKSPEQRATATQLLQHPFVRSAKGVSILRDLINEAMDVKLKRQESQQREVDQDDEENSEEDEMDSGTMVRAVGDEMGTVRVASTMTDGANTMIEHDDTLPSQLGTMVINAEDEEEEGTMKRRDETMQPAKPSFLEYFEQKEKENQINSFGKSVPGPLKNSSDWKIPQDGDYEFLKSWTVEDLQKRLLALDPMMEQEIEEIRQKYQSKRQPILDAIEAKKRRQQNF
# [2] = biological target: Serine/threonine-protein kinase 24 (Homo sapiens) (UniProt Q9Y6E0); experiment: Inhibition of STK24 (unknown origin) using fluorescein-labelled Ser/Thr-07 peptide as substrate incubated for 1 hr in presence of ATP at Km concentration by Z-LYTE assay
# [3] = biological target: Calcium/calmodulin-dependent protein kinase type II subunit alpha (Homo sapiens) (UniProt Q9UQM7); experiment: Inhibition of CAMK2A in human NCI-H929 cells at 10 uM by mass spectroscopic analysis relative to control; type: cell-based
# [4] = biological target: Calcium/calmodulin-dependent protein kinase type II subunit beta (Homo sapiens) (UniProt Q13554); experiment: Inhibition of CAMK2B in human NCI-H929 cells at 10 uM by mass spectroscopic analysis relative to control; type: cell-based
# [5] = biological target: Proto-oncogene tyrosine-protein kinase Src (Homo sapiens) (UniProt P12931); experiment: Inhibition of SRC in human NCI-H929 cells at 10 uM by mass spectroscopic analysis relative to control; type: cell-based
# [6] = biological target: Tyrosine-protein kinase Yes (Homo sapiens) (UniProt P07947); experiment: Inhibition of YES in human NCI-H929 cells at 10 uM by mass spectroscopic analysis relative to control; type: cell-based
# [7] = biological target: Mitogen-activated protein kinase 9 (Homo sapiens) (UniProt P45984); experiment: Inhibition of JNK2 in human NCI-H929 cells at 10 uM by mass spectroscopic analysis relative to control; type: cell-based
# [8] = biological target: Mitogen-activated protein kinase 10 (Homo sapiens) (UniProt P53779); experiment: Inhibition of JNK3 in human NCI-H929 cells at 10 uM by mass spectroscopic analysis relative to control; type: cell-based
# [9] = biological target: T2, Kinase suppressor of Ras 1 (Homo sapiens) (UniProt Q8IVT5); experiment: Inhibition of KSR1 in human NCI-H929 cells at 10 uM by mass spectroscopic analysis relative to control; type: cell-based
# T2 sequence (whole entry): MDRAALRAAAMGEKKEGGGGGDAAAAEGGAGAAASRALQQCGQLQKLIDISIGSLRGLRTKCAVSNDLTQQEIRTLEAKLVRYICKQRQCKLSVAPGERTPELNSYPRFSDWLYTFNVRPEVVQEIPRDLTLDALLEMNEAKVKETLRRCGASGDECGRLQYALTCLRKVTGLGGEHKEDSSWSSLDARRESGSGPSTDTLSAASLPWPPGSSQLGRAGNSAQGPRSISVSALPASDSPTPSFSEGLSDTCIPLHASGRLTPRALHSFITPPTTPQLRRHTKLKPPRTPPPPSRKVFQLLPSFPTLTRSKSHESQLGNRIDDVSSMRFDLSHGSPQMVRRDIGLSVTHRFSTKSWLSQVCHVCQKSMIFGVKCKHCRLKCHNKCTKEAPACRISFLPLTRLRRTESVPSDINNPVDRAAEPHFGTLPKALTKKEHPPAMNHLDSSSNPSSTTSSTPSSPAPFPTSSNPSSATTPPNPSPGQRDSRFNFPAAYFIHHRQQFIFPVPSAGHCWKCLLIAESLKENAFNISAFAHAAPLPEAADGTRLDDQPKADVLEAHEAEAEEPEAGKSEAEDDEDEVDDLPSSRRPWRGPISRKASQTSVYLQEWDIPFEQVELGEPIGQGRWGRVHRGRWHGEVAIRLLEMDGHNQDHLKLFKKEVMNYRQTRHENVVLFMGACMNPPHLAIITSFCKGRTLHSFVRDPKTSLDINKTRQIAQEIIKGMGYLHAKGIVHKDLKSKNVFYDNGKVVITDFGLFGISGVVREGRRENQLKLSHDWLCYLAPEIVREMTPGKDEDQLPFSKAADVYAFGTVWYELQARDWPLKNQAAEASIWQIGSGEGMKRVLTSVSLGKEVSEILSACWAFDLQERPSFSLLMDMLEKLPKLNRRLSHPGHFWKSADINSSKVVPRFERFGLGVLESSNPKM
# [10] = biological target: MAP kinase-activated protein kinase 2 (Homo sapiens) (UniProt P49137); experiment: Inhibition of MAPKAPK2 in human NCI-H929 cells at 10 uM by mass spectroscopic analysis relative to control; type: cell-based
# [11] = biological target: Serine/threonine-protein kinase Nek6 (Homo sapiens) (UniProt Q9HC98); experiment: Inhibition of NEK6 in human NCI-H929 cells at 10 uM by mass spectroscopic analysis relative to control; type: cell-based
# [12] = biological target: Serine/threonine-protein kinase WNK1 (Homo sapiens) (UniProt Q9H4A3); experiment: Inhibition of WNK1 in human NCI-H929 cells at 10 uM by mass spectroscopic analysis relative to control; type: cell-based
# [13] = biological target: Serine/threonine-protein kinase WNK3 (Homo sapiens) (UniProt Q9BYP7); experiment: Inhibition of WNK3 in human NCI-H929 cells at 10 uM by mass spectroscopic analysis relative to control; type: cell-based
# [14] = biological target: Mitogen-activated protein kinase kinase kinase kinase 4 (Homo sapiens) (UniProt O95819); experiment: Inhibition of HGK in human NCI-H929 cells at 10 uM by mass spectroscopic analysis relative to control; type: cell-based
# [15] = biological target: TRAF2 and NCK-interacting protein kinase (Homo sapiens) (UniProt Q9UKE5); experiment: Inhibition of TNIK in human NCI-H929 cells at 10 uM by mass spectroscopic analysis relative to control; type: cell-based
# [16] = biological target: PRKCI, protein kinase C iota (Homo sapiens) (UniProt P41743); experiment: Inhibition of PKCi in human NCI-H929 cells at 10 uM by mass spectroscopic analysis relative to control
# Sequence of Serine/threonine-protein kinase Nek6 (Homo sapiens) (Q9HC98 whole entry): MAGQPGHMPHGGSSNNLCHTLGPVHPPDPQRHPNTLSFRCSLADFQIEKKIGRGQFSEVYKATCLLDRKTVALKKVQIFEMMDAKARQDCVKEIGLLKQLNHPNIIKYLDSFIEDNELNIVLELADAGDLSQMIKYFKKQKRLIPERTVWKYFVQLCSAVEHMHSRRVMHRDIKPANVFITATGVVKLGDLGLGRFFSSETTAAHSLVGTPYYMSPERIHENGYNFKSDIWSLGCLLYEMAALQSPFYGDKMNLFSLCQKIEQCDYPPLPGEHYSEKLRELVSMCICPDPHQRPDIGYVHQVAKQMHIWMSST
# Sequence of Serine/threonine-protein kinase WNK1 (Homo sapiens) (Q9H4A3 whole entry, looked up): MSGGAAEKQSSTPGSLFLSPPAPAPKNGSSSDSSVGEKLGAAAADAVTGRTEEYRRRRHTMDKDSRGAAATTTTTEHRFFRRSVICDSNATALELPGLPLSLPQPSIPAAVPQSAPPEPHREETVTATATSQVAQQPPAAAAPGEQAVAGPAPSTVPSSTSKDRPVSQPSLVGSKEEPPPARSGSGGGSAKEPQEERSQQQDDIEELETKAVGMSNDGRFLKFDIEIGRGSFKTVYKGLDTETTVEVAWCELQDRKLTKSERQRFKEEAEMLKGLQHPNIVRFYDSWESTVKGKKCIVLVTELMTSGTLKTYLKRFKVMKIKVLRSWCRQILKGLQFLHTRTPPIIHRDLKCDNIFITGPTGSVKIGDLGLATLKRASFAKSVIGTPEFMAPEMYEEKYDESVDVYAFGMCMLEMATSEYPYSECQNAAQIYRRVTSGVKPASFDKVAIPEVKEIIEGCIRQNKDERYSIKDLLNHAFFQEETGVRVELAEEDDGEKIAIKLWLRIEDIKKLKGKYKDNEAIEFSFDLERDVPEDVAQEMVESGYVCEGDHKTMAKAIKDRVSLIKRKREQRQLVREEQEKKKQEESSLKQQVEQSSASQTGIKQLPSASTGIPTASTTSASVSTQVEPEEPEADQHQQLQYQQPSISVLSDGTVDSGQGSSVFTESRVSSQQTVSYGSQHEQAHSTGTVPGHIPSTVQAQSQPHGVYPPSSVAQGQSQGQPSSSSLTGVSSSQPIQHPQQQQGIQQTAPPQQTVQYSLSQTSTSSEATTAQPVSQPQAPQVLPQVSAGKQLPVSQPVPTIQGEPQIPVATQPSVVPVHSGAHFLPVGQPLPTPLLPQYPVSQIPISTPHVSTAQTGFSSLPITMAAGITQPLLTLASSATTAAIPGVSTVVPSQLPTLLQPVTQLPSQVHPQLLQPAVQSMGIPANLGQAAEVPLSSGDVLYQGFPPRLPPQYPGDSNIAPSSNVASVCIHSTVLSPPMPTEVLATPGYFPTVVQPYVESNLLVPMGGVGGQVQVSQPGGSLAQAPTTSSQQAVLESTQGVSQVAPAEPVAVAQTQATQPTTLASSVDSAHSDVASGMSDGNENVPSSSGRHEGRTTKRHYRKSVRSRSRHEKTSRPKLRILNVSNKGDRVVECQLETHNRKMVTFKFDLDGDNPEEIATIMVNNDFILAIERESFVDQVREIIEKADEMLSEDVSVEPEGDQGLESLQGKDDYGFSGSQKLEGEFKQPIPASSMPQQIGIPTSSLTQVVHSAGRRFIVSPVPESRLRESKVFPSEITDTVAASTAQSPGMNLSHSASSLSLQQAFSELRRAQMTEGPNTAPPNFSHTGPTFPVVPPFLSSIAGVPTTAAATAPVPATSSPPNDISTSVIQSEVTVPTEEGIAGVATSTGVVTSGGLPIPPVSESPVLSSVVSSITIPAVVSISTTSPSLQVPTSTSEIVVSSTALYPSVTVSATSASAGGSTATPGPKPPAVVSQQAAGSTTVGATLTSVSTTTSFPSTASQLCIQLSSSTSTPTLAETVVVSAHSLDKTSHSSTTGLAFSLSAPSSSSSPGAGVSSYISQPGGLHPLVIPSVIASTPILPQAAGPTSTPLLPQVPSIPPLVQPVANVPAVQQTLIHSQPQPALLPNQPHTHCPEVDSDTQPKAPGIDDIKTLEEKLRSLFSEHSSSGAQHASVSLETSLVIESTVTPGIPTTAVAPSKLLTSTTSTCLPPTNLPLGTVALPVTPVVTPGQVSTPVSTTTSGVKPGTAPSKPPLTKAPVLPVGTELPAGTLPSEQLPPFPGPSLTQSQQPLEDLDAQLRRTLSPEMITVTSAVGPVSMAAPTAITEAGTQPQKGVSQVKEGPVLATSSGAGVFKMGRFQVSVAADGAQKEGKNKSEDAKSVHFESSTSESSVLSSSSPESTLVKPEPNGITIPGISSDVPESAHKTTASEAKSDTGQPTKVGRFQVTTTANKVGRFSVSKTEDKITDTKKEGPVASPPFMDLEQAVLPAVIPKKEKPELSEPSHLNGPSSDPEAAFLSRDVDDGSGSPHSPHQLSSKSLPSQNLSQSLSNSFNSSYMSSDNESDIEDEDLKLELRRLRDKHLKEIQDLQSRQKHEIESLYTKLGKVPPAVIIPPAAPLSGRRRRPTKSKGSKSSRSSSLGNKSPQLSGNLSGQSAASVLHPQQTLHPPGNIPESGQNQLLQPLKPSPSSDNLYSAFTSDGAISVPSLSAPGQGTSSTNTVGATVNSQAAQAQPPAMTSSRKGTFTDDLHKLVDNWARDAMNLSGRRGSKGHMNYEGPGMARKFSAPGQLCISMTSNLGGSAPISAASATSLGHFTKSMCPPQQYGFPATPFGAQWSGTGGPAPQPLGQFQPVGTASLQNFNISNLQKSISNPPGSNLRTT
# Sequence of Proto-oncogene tyrosine-protein kinase Src (Homo sapiens) (P12931 2-536 limits assumed): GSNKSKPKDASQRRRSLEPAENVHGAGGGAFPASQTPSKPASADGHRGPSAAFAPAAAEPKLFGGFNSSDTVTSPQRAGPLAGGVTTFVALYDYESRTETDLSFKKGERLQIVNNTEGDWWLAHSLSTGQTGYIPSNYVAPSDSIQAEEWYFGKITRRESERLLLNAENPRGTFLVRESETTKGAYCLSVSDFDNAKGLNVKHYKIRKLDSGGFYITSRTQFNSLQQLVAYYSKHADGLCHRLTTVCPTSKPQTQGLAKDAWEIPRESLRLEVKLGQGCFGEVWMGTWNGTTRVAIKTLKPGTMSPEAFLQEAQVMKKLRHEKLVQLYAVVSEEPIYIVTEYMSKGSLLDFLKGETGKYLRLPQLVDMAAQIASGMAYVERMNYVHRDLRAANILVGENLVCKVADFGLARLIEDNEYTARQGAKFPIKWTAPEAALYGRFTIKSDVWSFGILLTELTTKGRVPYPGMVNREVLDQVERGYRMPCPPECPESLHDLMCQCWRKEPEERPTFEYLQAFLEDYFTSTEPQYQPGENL
# Sequence of Tyrosine-protein kinase Yes (Homo sapiens) (P07947 2-543 limits assumed): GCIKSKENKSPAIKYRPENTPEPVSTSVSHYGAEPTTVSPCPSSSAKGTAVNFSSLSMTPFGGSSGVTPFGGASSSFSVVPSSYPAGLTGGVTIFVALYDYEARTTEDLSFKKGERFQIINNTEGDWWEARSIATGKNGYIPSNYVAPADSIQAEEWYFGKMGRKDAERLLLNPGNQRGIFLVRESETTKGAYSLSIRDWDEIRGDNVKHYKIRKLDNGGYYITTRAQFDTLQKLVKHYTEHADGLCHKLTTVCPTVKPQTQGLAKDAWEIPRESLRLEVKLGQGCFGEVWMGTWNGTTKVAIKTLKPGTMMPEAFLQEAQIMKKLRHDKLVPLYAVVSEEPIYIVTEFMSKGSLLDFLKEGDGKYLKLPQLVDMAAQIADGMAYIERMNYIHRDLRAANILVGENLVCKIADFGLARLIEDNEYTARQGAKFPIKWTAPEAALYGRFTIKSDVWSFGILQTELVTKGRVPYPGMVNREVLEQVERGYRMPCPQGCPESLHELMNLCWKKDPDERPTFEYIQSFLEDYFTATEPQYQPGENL
# Sequence of Mitogen-activated protein kinase 9 (Homo sapiens) (P45984 whole entry, looked up): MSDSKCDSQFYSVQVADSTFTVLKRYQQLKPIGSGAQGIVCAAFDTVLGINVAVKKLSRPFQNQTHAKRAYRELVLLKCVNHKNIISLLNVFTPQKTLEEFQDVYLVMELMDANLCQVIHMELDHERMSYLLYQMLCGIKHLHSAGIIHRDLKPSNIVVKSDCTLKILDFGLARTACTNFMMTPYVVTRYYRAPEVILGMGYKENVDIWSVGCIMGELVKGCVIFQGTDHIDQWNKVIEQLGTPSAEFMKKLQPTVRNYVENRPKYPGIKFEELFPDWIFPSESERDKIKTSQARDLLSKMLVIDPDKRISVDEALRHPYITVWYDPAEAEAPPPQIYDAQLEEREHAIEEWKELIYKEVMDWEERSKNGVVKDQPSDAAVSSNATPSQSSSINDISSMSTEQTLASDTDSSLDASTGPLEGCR
# Sequence of MAP kinase-activated protein kinase 2 (Homo sapiens) (P49137 whole entry, looked up): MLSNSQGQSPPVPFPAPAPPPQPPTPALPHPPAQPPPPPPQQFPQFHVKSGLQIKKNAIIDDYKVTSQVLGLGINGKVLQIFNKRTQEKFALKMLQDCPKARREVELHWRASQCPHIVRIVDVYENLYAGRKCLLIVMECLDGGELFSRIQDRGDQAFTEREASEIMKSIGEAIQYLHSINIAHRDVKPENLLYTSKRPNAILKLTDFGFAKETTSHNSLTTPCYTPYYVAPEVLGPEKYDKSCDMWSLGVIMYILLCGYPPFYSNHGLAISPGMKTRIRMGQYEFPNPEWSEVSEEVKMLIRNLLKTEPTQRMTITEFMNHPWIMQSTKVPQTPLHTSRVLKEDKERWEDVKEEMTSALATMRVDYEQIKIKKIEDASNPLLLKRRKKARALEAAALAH
# Sequence of Serine/threonine-protein kinase 24 (Homo sapiens) (Q9Y6E0 whole entry, looked up): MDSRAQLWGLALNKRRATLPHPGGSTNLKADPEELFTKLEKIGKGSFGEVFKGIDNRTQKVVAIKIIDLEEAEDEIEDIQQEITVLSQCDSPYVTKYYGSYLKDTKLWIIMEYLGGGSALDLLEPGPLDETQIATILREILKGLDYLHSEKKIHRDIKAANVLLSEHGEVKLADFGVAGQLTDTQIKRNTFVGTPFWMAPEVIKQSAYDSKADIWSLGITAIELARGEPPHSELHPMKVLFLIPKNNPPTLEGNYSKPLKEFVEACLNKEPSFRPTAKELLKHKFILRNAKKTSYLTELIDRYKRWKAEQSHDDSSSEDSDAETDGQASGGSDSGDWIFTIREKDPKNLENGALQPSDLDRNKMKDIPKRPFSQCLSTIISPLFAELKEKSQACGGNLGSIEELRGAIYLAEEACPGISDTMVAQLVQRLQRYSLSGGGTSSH
Compound,pIC50 [1],pIC50 [2],inhibition [3],inhibition [4],inhibition [5],inhibition [6],inhibition [7],inhibition [8],inhibition [9],inhibition [10],inhibition [11],inhibition [12],inhibition [13],inhibition [14],inhibition [15],inhibition [16]
Nc1ncc(-c2cccc3ncsc23)cc1-c1ccc2c(c1)CCNC2=O,> 7.40,< 6.05,0%,0%,0%,0%,0%,0%,0%,0%,0%,0%,0%,> 90%,> 90%,0%
Nc1ncc(-c2ccc(NS(=O)(=O)C3CC3)cc2OC2CCCCC2)cc1-c1ccc2c(c1)CCNC2=O,> 7.40,< 6.05,0%,0%,0%,0%,0%,0%,0%,0%,0%,0%,0%,> 90%,50%,0%
Nc1ncc(-c2cccc([N+](=O)[O-])c2F)cc1-c1ccc2c(c1)CCNC2=O,> 7.40,< 6.05,0%,0%,0%,0%,0%,0%,0%,0%,0%,> 100%,> 100%,> 90%,> 90%,0%

# Other lines, results leading:
pIC50 [1],pIC50 [2],inhibition [3],inhibition [4],inhibition [5],inhibition [6],inhibition [7],inhibition [8],inhibition [9],inhibition [10],inhibition [11],inhibition [12],inhibition [13],inhibition [14],inhibition [15],inhibition [16],Compound
> 7.40,7.40,0%,0%,0%,0%,0%,0%,0%,0%,0%,0%,0%,> 90%,> 90%,0%,CN(C1CC1)S(=O)(=O)c1ccc(-c2cnc(N)c(-c3ccc4c(c3)CCNC4=O)c2)c(F)c1
> 7.40,6.70,0%,0%,0%,> 90%,0%,75%,0%,0%,0%,0%,0%,> 90%,> 90%,0%,COc1cc(NS(=O)(=O)C2CC2)ccc1-c1cnc(N)c(-c2ccc3c(c2)CCNC3=O)c1
> 7.40,7.40,0%,0%,0%,0%,0%,0%,0%,0%,0%,0%,0%,> 90%,> 90%,0%,Nc1ncc(-c2ccc(NS(=O)(=O)C3CC3)cc2F)cc1-c1ccc2c(c1)CCNC2=O
